Legend:
malignant cells = conditions: Kushner et al. 1999; cited from earlier work
[1] = DMR measurement of deuterated glucose metabolism in mice; format: in vivo, mice (C57/BL6); conditions: mice injected iv or ip with 8.9 mg deuterated glucose, whole-body DMR spectrum
Description: (§1) DMR measurements (AQ 0.2s; TR 0.3s; NS 128; LB 30; 38s/spectrum) were performed at 9.4 T on a wide bore (89 mm) Bruker Avance microimager equipped with a multinuclear probe. A set of experiments was performed on three male mice (C57/BL6) and another set, on Tenebrio molitor larvae. Mouse 1 (25 g), was injected iv with 8.9 mg deuterated glucose (ISOTEC) dissolved in 0.4 ml saline solution; it was sacrificed after 1.5 hr and, after dissection, its whole body (except fur and skin) was placed in a 20 mm NMR tube for running the DMR spectrum (shown in FIG. 4, upper trace). Mouse 2, (32 g) injected ip with the same amount of glucose-d7 as mouse 1 was sacrificed after 3.5 hr, and yielded the spectrum seen in the same FIG. 4, second trace. Tenebrio molitor larvae were starved for several days, then placed in a 20 mm NMR tube together with food consisting of 0.4 g bran wetted with an aqueous solution of deuterated glucose.

[2] = DMR measurement of deuterated glucose metabolism in Tenebrio molitor larvae; format: in vivo; conditions: starved larvae fed bran wetted with aqueous deuterated glucose, 2H spectrum
Description: as §1
In our approach, the excellent tracer quality of deuterium (natural abundance 0.015%) is combined with the fact that only two well separated peaks are to be measured; that of nascent metabolic water, and that of the aliphatic chain of fatty acids. Thus, in spite of their large line widths (100-230 Hz) due to the electric quadrupole moment and unfavorable correlation times, the spectra can be interpreted in a quantitative manner. […]

[2H]O[2H] [D2O]
toxicity to malignant cells compared with normal animal cells (malignant cells): more toxic to malignant cells than normal animal cells

[2H]C1(O)O[C@]([2H])(C([2H])([2H])O)[C@@]([2H])(O)[C@]([2H])(O)[C@@]1([2H])O (stereo partly drawn) [deuterated glucose, D-7 Glucose[1,2,3,4,5,6,6-2H7]]
consumption of deuterated glucose ([1]; sacrificed after 1.5 hr or 3.5 hr): all deuterated glucose was consumed by the mice
metabolic fate of deuterated glucose (metabolic water / fat) [1]: most of it provided protons for the formation of metabolic water, part of it was metabolized into fat
incorporation of D-label into fat [2]: did not incorporate a visible amount of D-label into fat
metabolism of glucose into deuterated water ([2]; end of the experiment): all glucose was metabolized into deuterated water

From patent US10646594B2, “Deuterated metabolic water precursor for detecting and treating diseased tissue” (CASE WESTERN RESERVE UNIVERSITY, priority 2009, dated 2020)
